Among the data in US20250346584A1, “NOVEL KAPPA OPIOID LIGANDS” (The Scripps Research Institute, priority 2012, published 2025) are IC50 values, retold here.

The IC50 is the concentration that inhibits the measured activity by half.

This assay deals with kappa opioid receptor (OPRK1) (Homo sapiens (Human), UniProt P41145). Kind of assay: OPRK1 antagonist assay (b-arrestin-2-TEV / b-lactamase reporter cell line, EC80 U-50488 challenge). In kind it is cell-based. To be noted: read-out: IC50 nM (% inhib if other than 50%); antagonist mode vs EC80 U-50488; NA = not active at concentrations up to 10 μM.
Sequence of kappa opioid receptor (OPRK1) (P41145 whole entry): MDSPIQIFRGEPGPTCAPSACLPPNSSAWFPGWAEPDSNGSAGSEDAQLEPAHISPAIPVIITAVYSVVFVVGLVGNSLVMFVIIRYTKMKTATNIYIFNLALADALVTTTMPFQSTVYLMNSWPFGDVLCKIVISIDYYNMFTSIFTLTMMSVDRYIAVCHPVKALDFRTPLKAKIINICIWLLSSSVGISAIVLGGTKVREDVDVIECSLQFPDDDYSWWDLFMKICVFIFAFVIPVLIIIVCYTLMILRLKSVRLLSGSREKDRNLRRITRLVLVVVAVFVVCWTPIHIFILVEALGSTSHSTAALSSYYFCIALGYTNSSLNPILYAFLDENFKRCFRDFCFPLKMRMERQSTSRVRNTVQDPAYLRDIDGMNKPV
With `CCOC(=O)c1cc(C(=O)OC)c(C)nc1N1CCC(NC2CCCCC2)C(CO)C1` (stereo not shown) [compound 93], the IC50 came to 621 nM.
Then `COC(=O)c1cc(Br)cnc1N1CCC(NC2CCCCC2)C(C)(C)C1` (stereo not shown) [compound 63], with 234 nM.
With `CCOC(=O)c1cc(C(=O)OC)c(C)nc1N1CCC(NC2CCCCC2)CC1` [compound 92], the IC50 was determined as 2600 nM.
As to `Cc1ccc2nc(N3CCC(NC4CCCC[C@@H]4O)CC3)c(-c3noc(C)n3)cc2c1` (stereo partly shown) [compound 437], the IC50 was determined as 17 nM.
Then `Cc1cnc(N2CCC(NC3CCCCC3)CC2)c(-c2ccc(C)o2)c1` [compound 499], with 116 nM; and `Cc1noc(-c2cc(C3CC3)cnc2N2CC[C@@H](NC3CCCCC3)[C@H](O)C2)n1` [compound 155], with 1300 nM; and `Cc1noc(-c2cc3ccccc3nc2N2CCC(NC3CCOCC3)CC2)n1` [compound 232], with 8 nM.
Then `COC(=O)c1cc(NC(=O)NC(C)C)cnc1N1CCC(NC2CCCCC2)CC1` [C35], with 17000 nM; and `Cc1noc(-c2cc3cc(Cl)ccc3nc2N2CC[C@@H](NC3CCCCC3)[C@H](O)C2)n1` [compound 238], with 38 nM.
In the case of `CC(=O)c1cc(Br)cnc1N1CC[C@@H](NC2CCCCC2)[C@H](O)C1` [compound 127], the IC50 turned out to be 33 nM.
With `CCCC(C)NC1CCN(c2nc3ccc(C)cc3cc2-c2noc(C)n2)CC1` (stereo not shown) [compound 453], the IC50 came to 85 nM.
Next, `Cc1ccc2cc(-c3nc(C)no3)c(N3CCC(NC4CCCCC4)C(CO)C3)nc2c1` (stereo not shown) [compound 229]: 5 nM; `COC1CN(c2ncc(C)cc2-c2nc(C)no2)CCC1NC1CCCCCC1` (stereo not shown) [compound 318]: 19 nM; `CCOC(=O)c1cccnc1N1CCC(NC2CCCCC2)C1` (stereo not shown) [compound 25]: 1200 nM.
Take `COC(=O)c1cc(Br)cnc1N1CCC(N(C)C2CCCCC2)CC1` [compound 19]: the IC50 is 2700 nM.
On to `COC(=O)c1cc(Br)cnc1N1CCCC(NC2CCCCC2)CC1` (stereo not shown) [compound 66], for which the IC50 was found to be 1700 nM.
In the case of `CCc1cnc(N2CCC(NC3CCCCC3)C(O)C2)c(C(=O)OC)c1` (stereo not shown) [compound 133], the IC50 worked out at 272 nM.
Turning to `CO[C@H]1CN(c2nc3cc(F)ccc3cc2-c2nc(C)no2)CC[C@H]1NC1CCCCC1` [compound 508], the IC50 worked out at 5 nM.
Next, `Cc1noc(-c2cc3ccc(F)cc3nc2N2CCC(NCC(C)C)CC2)n1` [compound 527]: 20 nM; `Cc1noc(-c2cc3cc(C)c(C)cc3nc2N2CCC(NC3CCCCC3)C(CO)C2)n1` (stereo not shown) [compound 307]: 41 nM.
Next, `Cc1ccc2nc(N3CCC(NC4CCCCC4)C(CO)C3)c(-c3nnc(C)o3)cc2c1` (stereo not shown) [compound 301]: 38 nM; `COC(=O)c1cc(Br)cnc1N1CCC(NC2CC2)CC1` [compound 78]: 1200 nM.
Then `COC(=O)c1cc(Br)cnc1N1C2CCC1CC(NC1CCCCC1)C2` (stereo not shown) [compound 15], with 7700 nM.
With `COC1CN(c2nc3ccccc3cc2-c2ncccn2)CCC1NC1CCCCC1` (stereo not shown) [compound 263], the IC50 worked out at 1770 nM.
Then `CCc1noc(-c2cc(C)cnc2N2CCC(NC3CCCCC3)C(CO)C2)n1` (stereo not shown) [compound 171], with 1100 nM; and `Cc1cnc(-c2cc(C)cnc2N2CCC(NC3CCCCC3)CC2)nc1` [compound 406], with 7680 nM; and `Cc1noc(-c2nc3ccccc3nc2N2CC[C@@H](NC3CCCCC3)[C@H](O)C2)n1` [compound 188], with 187 nM.
Next, `COC1CN(c2ncc(C)cc2-c2cn(C)nn2)CCC1NC1CCCCC1` (stereo not shown) [compound 392]: 2960 nM; `Cc1ccc2nc(N3CCC(NCC4CCCO4)CC3)c(-c3nc(C)no3)cc2c1` (stereo not shown) [compound 262]: 60 nM; `Cc1cnc(N2CCC(NC3CCCCC3)C(C)C2)c(-c2nc(C)no2)c1` (stereo not shown) [compound 194]: 180 nM.
Then `Cc1ccc2nc(N3CCC(NC4CCCCC4F)CC3)c(-c3nc(C)no3)cc2c1` (stereo not shown) [compound 250], with 8 nM.
